Source: PMC3162021 (PLoS ONE, 2011)
Where a chain is given by its changes, count along the chain named.

Assays:
α1 GlyR = target: T1, α1 GlyR (Rattus norvegicus, UniProt P07727); experiment: whole-cell voltage clamp, modulation of glycine current; assay type: cell-based; settings: positive allosteric modulator; glycine at EC10, co-applied; pH 7.4, 20-24 °C
T1 construct: gene Glra1; homomeric α1, expressed in HEK 293 cells from pCI or pcDNA3; A52, I240, G254, S296, K385 (mature numbering); K385 fits the form without the 8-residue loop insert
T1 sequence (P07727 29-449 isoform P07727-2): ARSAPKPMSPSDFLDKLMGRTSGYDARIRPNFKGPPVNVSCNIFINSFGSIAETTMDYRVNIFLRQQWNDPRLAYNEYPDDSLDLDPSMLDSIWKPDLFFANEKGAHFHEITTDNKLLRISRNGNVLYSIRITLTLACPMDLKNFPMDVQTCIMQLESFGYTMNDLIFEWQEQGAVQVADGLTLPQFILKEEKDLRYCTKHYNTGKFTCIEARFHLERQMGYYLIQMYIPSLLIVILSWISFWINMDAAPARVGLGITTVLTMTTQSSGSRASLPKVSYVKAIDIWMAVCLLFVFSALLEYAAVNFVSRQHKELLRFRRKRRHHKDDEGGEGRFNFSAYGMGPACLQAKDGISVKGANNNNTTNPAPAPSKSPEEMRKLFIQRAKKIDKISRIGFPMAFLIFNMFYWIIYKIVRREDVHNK

α2 GlyR [1] = target: T2, α2 GlyR (Rattus norvegicus, UniProt P22771); experiment: as above; assay type: cell-based; settings: positive allosteric modulator; glycine at EC10, co-applied; pH 7.4, 20-24 °C
T2 construct: gene Glra2; homomeric α2, expressed in HEK 293 cells; T59, A261, A303 (T59 fits splice form alpha-2A)
T2 sequence (P22771 28-452): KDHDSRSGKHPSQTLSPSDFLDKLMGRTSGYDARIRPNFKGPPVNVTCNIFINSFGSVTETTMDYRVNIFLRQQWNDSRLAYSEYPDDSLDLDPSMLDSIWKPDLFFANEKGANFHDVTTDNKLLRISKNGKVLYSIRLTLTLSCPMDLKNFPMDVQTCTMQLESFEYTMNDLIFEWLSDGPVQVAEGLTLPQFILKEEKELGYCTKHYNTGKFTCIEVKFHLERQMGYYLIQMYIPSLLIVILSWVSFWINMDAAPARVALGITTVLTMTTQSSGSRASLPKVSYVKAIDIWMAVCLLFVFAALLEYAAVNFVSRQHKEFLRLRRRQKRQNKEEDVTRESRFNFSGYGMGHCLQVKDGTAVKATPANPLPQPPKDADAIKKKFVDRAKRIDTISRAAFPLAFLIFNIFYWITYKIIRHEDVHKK

α2 GlyR [2] = target: T2, α2 GlyR; experiment: as above; assay type: cell-based; settings: allosteric inhibitor; glycine at EC10, co-applied; pH 7.4, 20-24 °C
α2α1 = test system: T3, α2α1; experiment: whole-cell voltage clamp, concentration-response; assay type: cell-based, Rattus norvegicus; settings: agonist; pH 7.4, 20-24 °C, -60 mV
T3 construct: gene Glra2; one fused subunit: α2 upstream of the TM3-4 loop (ECD to TM3), then α1 intracellular loop plus TM4; HEK 293
Description: whole-cell voltage clamp, concentration-response on α2α1

α1α2 = test system: T4, α1α2; experiment: whole-cell voltage clamp, concentration-response; assay type: cell-based, Rattus norvegicus; settings: agonist; pH 7.4, 20-24 °C, -60 mV
T4 construct: gene Glra1; one fused subunit: α1 upstream of the TM3-4 loop (ECD to TM3), then α2 intracellular loop plus TM4; HEK 293
Description: whole-cell voltage clamp, concentration-response on α1α2

α2 GlyR [3] = target: T2, α2 GlyR; experiment: whole-cell voltage clamp, concentration-response; assay type: cell-based
Description: (§1) whole-cell voltage clamp, concentration-response on α2 GlyR

α2 GlyR [4] = target: T5, α2 GlyR (Rattus norvegicus, UniProt P22771, A288G); experiment: whole-cell voltage clamp, concentration-response; assay type: cell-based
T5 construct: gene Glra2; homomeric α2, expressed in HEK 293 cells; T59, A261, A303 (T59 fits splice form alpha-2A)
T5 sequence (P22771 28-452 A288G): T2 sequence (P22771 28-452) with A261G
Description: as §1

α2 GlyR [5] = target: T6, α2 GlyR (Rattus norvegicus, UniProt P22771, A288G/A330S/T86A); experiment: whole-cell voltage clamp, concentration-response; assay type: cell-based
T6 construct: gene Glra2; homomeric α2, expressed in HEK 293 cells; T59, A261, A303 (T59 fits splice form alpha-2A)
T6 sequence (P22771 28-452 T86A/A288G/A330S): T2 sequence (P22771 28-452) with T59A, A261G, A303S
Description: as §1

α2 GlyR [6] = target: T7, α2 GlyR (Rattus norvegicus, UniProt P22771, A288G/T86A); experiment: whole-cell voltage clamp, concentration-response; assay type: cell-based
T7 construct: gene Glra2; homomeric α2, expressed in HEK 293 cells; T59, A261, A303 (T59 fits splice form alpha-2A)
T7 sequence (P22771 28-452 T86A/A288G): T2 sequence (P22771 28-452) with T59A, A261G
Description: as §1

α2 GlyR [7] = target: T8, α2 GlyR (Rattus norvegicus, UniProt P22771, T86A); experiment: whole-cell voltage clamp, concentration-response; assay type: cell-based
T8 construct: gene Glra2; homomeric α2, expressed in HEK 293 cells; T59, A261, A303 (T59 fits splice form alpha-2A)
T8 sequence (P22771 28-452 T86A): T2 sequence (P22771 28-452) with T59A
Description: as §1

SMILES	% potentiation at 10 μM (α1 GlyR)	% potentiation at 10 μM (α2 GlyR [1])	% change of current at 10 μM (α2 GlyR [2]) [%]	EC50 (α2α1) [µM]	EC50 (α1α2) [µM]	EC50 (α2 GlyR [3]) [µM]	EC50 (α2 GlyR [4]) [µM]	EC50 (α2 GlyR [5]) [µM]	EC50 (α2 GlyR [6]) [µM]	EC50 (α2 GlyR [7]) [µM]
CCCCC/C=C\C/C=C\C/C=C\C/C=C\CCCC(=O)NCCO [AEA]	AEA, anandamide	showed consistent positive allosteric modulation of all the GlyR isoforms								
CCCCC/C=C\C/C=C\C/C=C\C/C=C\CCCC(=O)NCC(=O)O [NA-Gly]	101±11%		−56±5							
NCC(=O)O [glycine]				111 ± 1	86 ± 3	120 ± 6	217 ± 6	102 ± 2	76 ± 2	63 ± 1
